# Patent publication US20080161268A1, “[…] AMMONIUM SALT ANTIBACTERIAL AND WATER-BORNE COATING MATERIAL HAVING […] CONTAINING THE SAME” (COMPAL ELECTRONICS, INC., priority 2006, published 2008)
# Columns and labels:
# [1] = Potential measurement (surface potential, Zetasizer Nano ZS); format: physicochemical; settings: concentration about 5%, pH 0-7, FIG. 1
# Description: The methanol solution including 45% of the organic quaternary ammonium salt A having the siloxane structure and the methanol solution including 45% of the organic quaternary ammonium salt Bhaving no siloxane structure were respectively adjusted to a pH value of 0-7 by 0.1 N HCl and 0.1 N NaOH, and formulated to have a concentration of about 5%. The surface potentials were measured with Zetasizer, Nano ZS (Malvern, United Kingdom).
# Bacteria = experiment: Antibiotic experiment according to Japanese Standards Testing Method (JISZ 2801-2000); format: cell-based; settings: for Antimicrobial Activity Value: versus control group (neat cement paint)
# Description: After formulating the organic quaternary ammonium salt having the siloxane structure to have a concentration of 5% and adjusting the pH value to be 7, an antibiotic experiment was performed according to Japanese Standards Testing Method (JISZ 2801-2000).
# [2] = Test of the stability of antibacterial in latex paint; format: physicochemical; settings: pH about 7
# Description: Four quaternary ammonium salt antibacterials A, B, C, and D shown in table 1 were prepared respectively, in which A was a quaternary ammonium salt antibacterial having the siloxane structure, and the other three antibacterials B, C, and D were quaternary ammonium salt antibacterials having no siloxane structure. Then, the four antibacterials A, B, C, and D were respectively added into a latex paint, and formulated to have a concentrations of 500, 1500, 2500, and 5000 ppm, and the pH value was adjusted to about 7. Changes of the antibacterials in the latex paint were observed.
compound,measurement,setting,value
CCCCCCCCCCCCCCCCCC[N+](C)(C)[Si](OC)(OC)OC.[Br-] [Antibacterial A],Electronegativity (surface potential) versus pH value,[1],increased with the increment of pH value
same,Bacteriostatic Ratio,Bacteria; 0 h,less than 90%
same,Bacteria count at 0 h * 3 sheets,"Bacteria; 0 h, concentration 5%, pH 7",3.73 × 10^5
same,Antimicrobial Activity Value,Bacteria; 0 h,0.47
same,Bacteriostatic Ratio,Bacteria; 3 h,99%
same,Bacteria count at 3 h * 3 sheets,"Bacteria; 3 h, concentration 5%, pH 7",1.48 × 10^3
same,Antimicrobial Activity Value,Bacteria; 3 h,2.95
same,Bacteriostatic Ratio,Bacteria; 24 h,99.99%
same,Bacteria count at 24 h * 3 sheets,"Bacteria; 24 h, concentration 5%, pH 7",<10
same,Antimicrobial Activity Value,Bacteria; 24 h,4.89
same,Bacteriostatic Ratio,"Bacteria; concentration 5%, pH 7, time not given",greater than 99.99%
same,Miscibility in the latex paint,[2]; 500-5000 ppm,good miscibility
same,Changes of the antibacterial in the latex paint,[2]; content of antibacterial 500 ppm,miscible
same,Changes of the antibacterial in the latex paint,[2]; content of antibacterial 1500 ppm,miscible
same,Changes of the antibacterial in the latex paint,[2]; content of antibacterial 2500 ppm,miscible
same,Changes of the antibacterial in the latex paint,[2]; content of antibacterial 5000 ppm,miscible
